In brackets after ≈: the same amount, converted by molar mass. Like-named read-outs stand apart in the source and are kept apart here.
Tests used:
[1] = system: Staphylococcus aureus CMRSA-10; assay: Broth microdilution MIC; assay type: cell-based
Description: (§1) Reference strains for this study (S. aureus ATCC 29213, ATCC 29740 [bovine mastitis strain Newbould], S. epidermidis ATCC 12228, E. coli ATCC 35695, E. faecalis ATCC 29212) were obtained from the American Type Culture Collection (ATCC, Rockville, MD). S. aureus strains CMRSA-10 and CMRSA-2 were obtained from the Laboratoire de santé publique du Québec (LSPQ, Sainte-Anne-de-Bellevue, QC, Canada) and are Canadian CA-MRSA USA-300 and HA-MRSA USA-100 clones, respectively. The strain E. coli imp4213 (lptD), used as a control in MIC assays, is a derivative of E. coli ATCC 35695 (E. coli MC4100) with an increased membrane permeability. […] Other MRSA strains used in this study are clinical isolates of human origin obtained from the microbiology laboratory of the Centre Hospitalier Universitaire de Sherbrooke (CHUS, Sherbrooke, QC, Canada). Bovine mastitis strains (S. aureus, S. chromogenes, S. haemolyticus, S. hominis, S. simulans) were obtained from the Canadian Bovine Mastitis and Milk Quality Research Network (CBRQMN, St-Hyacinthe, QC, Canada). Among these strains, S. aureus 2117 is a high producer of biofilm and was used in the biofilm-eradication assay. S. epidermidis isolates were provided by Centre de Recherche en Infectiologie (CRI) de Québec (Québec, QC, Canada).

[2] = system: Staphylococcus aureus CMRSA-2; assay: Broth microdilution MIC; assay type: cell-based
Description: as §1

[3] = system: Bacillus subtilis xpt-lacZ; assay: Broth microdilution MIC; assay type: cell-based; conditions: B. subtilis xpt-lacZ, read-out: Broth Microdilution MIC
[4] = set-up: method as in PMID 20421948; conditions: presence of water and oxygen; cited from earlier work
[5] = system: S. aureus guanine riboswitch; set-up: method as in PMID 20421948; conditions: cited from earlier work
[6] = system: S. aureus; set-up: method as in PMID 20421948; conditions: compared with PC1; cited from earlier work
[7] = system: Escherichia coli ΔlptD4213; assay: microbe, parasite or virus in culture; assay type: cell-based; conditions: read-out: Broth Microdilution MIC
Description: as §1

[8] = system: guanine riboswitch-lacZ fusion construct (xpt-lacZ); assay: Riboswitch regulation assay (lacZ-gene reporter); assay type: cell-based, B. subtilis
Description: The novel pyrimidine compounds, especially PC206, display specificity and potency against some staphylococci but not the other bacterial genus (Table 1 and Table 2). Because they are structurally derived from PC1 and PC2, these novel antibiotic candidates are expected to have the same mode of action. […] To verify this hypothesis, a strain of B. subtilis with a guanine riboswitch-lacZ fusion construct (named xpt-lacZ) integrated in its chromosome was exposed to these new antimicrobials. […] Therefore, it is an adequate reporter species. The metabolization of substrate ONPG into colored ONP was normalized by the bacterial suspension absorbance at 600 nm (Miller units) and relativized to the untreated condition.
β-galactosidase gene expression in the presence of the new pyrimidine analogs was studied, using an xpt-lacZ transcriptional fusion construct integrated in the genome of B. subtilis as previously described. Briefly, cultures were grown for 5 h at 35 °C in CAMHB, from an initial optical density of 0.05 at 600 nm (OD600), and then diluted 1:20 and in the presence of different concentrations of the compounds tested. Cultures were centrifuged for 10 min at 13,100 rpm, the supernatant was discarded, and pellets were suspended in a Z-buffer (NaH2PO4 40 mM, Na2HPO4 60 mM, MgSO4 1 mM, KCl 10 mM). Cultures OD600 were measured, and bacteria were then lysed with lysozyme (1 mg/mL) and β-mercaptoethanol 50 mM for 30 min. Lysates were centrifuged for 10 min at 13,100 rpm, and supernatants were incubated for 5 min at 30 °C with the substrate orthonitrophenyl-β-galactoside (ONPG; Sigma Aldrich). Reactions were stopped with Na2CO3 1M, supernatants OD420 were measured, and Miller units were calculated. A decrease in β-galactosidase activity indicated binding of the test compound to the riboswitch. Guanine and oxacillin were used as […] controls, respectively. The formula to measure Miller units is as follows: Millerunits=1000×OD420/t·v·OD600
Here, t represents the time of incubation with ONPG, and v represents the volume of the reaction.

[9] = MTT assay; assay type: cell-based; conditions: human, HepG2 cells
[10] = MTT assay; assay type: cell-based; conditions: bovine, MAC-T cells, 24 h
[11] = LDH release assay; assay type: cell-based; conditions: human, HepG2 cells
[12] = LDH release assay; assay type: cell-based; conditions: bovine, MAC-T cells, 24 h
[13] = system: HepG2 and MAC-T cells versus S. aureus Newbould; assay: Selectivity ratios over both assays and both cell lines; assay type: cell-based; conditions: over MTT and LDH assays
Description: All CC50 values are reported in Table 3, and plots are provided in the Supplementary Information (Supplementary Figure S2). PC371 had no effect on cell viability even at the highest concentrations tested (CC50 > 600 μM) in both the MTT and the LDH assay and for the two cell lines tested. For the three other compounds, in both cell lines and both assays, a correlation was observed between the effect on cell viability and the length of their aliphatic chain. CC50 of PC372 (5 carbons) was higher than that of PC206 (6 carbons), and both were higher than that of PC383 (10 carbons). Indeed, for the MAC-T cells in the MTT assay, the values were >600 μM (PC372), 317 μM (PC206), and 13.5 μM (PC383). Again, for the MAC-T cell line, the values for the LDH assay were >600 μM (PC372 and PC206) and 23.6 μM (PC383). Similar results were obtained with the HepG2 cells. […] Overall, the MAC-T cells tolerated better exposure to the compounds than the HepG2 cells. To assess the selectivity of the PC2 analogs towards S. aureus, selectivity ratios were calculated. These ratios were obtained by dividing the cytotoxicity CC50 values of an analog by its MIC against S. aureus Newbould. It was not possible to calculate the selectivity ratio for PC371 as its CC50 and MIC values exceeded the maximum values tested.

[14] = system: Staphylococcus aureus ATCC 29213; assay: Broth microdilution MIC; conditions: ATCC29213, read-out: Broth Microdilution MIC
[15] = system: Staphylococcus epidermidis ATCC 12228; assay: Broth microdilution MIC; conditions: ATCC12228, read-out: Broth Microdilution MIC
[16] = system: Enterococcus faecalis ATCC 29212; assay: Broth microdilution MIC; conditions: ATCC29212, read-out: Broth Microdilution MIC
[17] = system: Escherichia coli ATCC 35695; assay: Broth microdilution MIC; conditions: ATCC35695, read-out: Broth Microdilution MIC
[18] = system: all reference staphylococci strains tested, including MRSA; assay: Broth microdilution MIC, summary over reference staphylococci; conditions: Staphylococcus aureus, read-out: MIC ranging, against all reference staphylococci strains tested
[19] = system: all tested bacterial strains, including non-staphylococci strains; assay: Broth microdilution MIC, summary over all strains tested; conditions: read-out: MIC against all tested bacterial strains
[20] = CMRSA10, S. aureus CMRSA-10, read-out: Broth Microdilution MIC
[21] = CMRSA2, S. aureus CMRSA-2, read-out: Broth Microdilution MIC

SMILES	Chemical stability [4]	Binding to the guanine riboswitch [5]	MIC [1, 20]	MIC [2, 21]	MIC [7]	MIC [3]	CC50 at 24 h [9]	CC50 at 24 h [10]	CC50 at 24 h [11]	CC50 at 24 h [12]	Selectivity ratio (CC50/MIC against S. aureus Newbould), overall [13]	MIC [14]	MIC [15]	MIC [16]	MIC [17]	also measured
Nc1nc(N)c(N)c(O)n1 [PC1, 2,5,6-triaminopyrimidine-4-one, reference compound]	chemically unstable	binding the guanine riboswitch of S. aureus	–	–	–	–	–	–	–	–	–	–	–	–	–	MIC ([1]; CMRSA10, S. aureus CMRSA-10, in the presence of 1.5 mM DTT, read-out: Broth Microdilution MIC): 2 mg/L; MIC ([2]; CMRSA2, S. aureus CMRSA-2, in the presence of 1.5 mM DTT, read-out: Broth Microdilution MIC): 1 mg/L; MIC ([3]; in the presence of 1.5 mM DTT): > 128 mg/L
Nc1cc(O)nc(N)n1 [PC2]	more chemically stable	bind the riboswitch ex vivo	–	–	–	–	–	–	–	–	–	–	–	–	–	Antimicrobial activity against S. aureus [6]: much lower antimicrobial activity
CCCCCNc1cc(N)nc(N)n1 [PC372]	–	–	8 mg/L (≈ 41 µM)	16 mg/L (≈ 81.9 µM)	> 128 mg/L	128 mg/L (≈ 656 µM)	341 ± 32 µM	> 600 µM	394 ± 15 µM	> 600 µM	above 3.9	16 mg/L (≈ 81.9 µM)	8 mg/L (≈ 41 µM)	> 128 mg/L	> 128 mg/L	Miller units remaining, relative to the untreated condition ([8]; 64 µg/mL): 50%; MIC [18]: 8 to 16 mg/L (≈ 41 to 81.9 µM)
CCCCCCCCCCNc1cc(N)nc(N)n1 [PC383]	–	–	4 mg/L (≈ 15.1 µM)	4 mg/L (≈ 15.1 µM)	8 mg/L (≈ 30.1 µM)	4 mg/L (≈ 15.1 µM)	11.7 ± 5.8 µM	13.5 ± 1.5 µM	6.6 ± 0.7 µM	23.6 ± 8.4 µM	~1	4 mg/L (≈ 15.1 µM)	4 mg/L (≈ 15.1 µM)	4 mg/L (≈ 15.1 µM)	16 mg/L (≈ 60.3 µM)	Effect on Miller units ([8]; highest evaluated dose 2 µg/mL): did not impact Miller units’ expression; MIC [19]: 4 to 16 mg/L (≈ 15.1 to 60.3 µM)
